Values after ≈ are worked out from the molar mass of the structure shown.
What was measured:
[1] = Cytotoxicity against human HepG2(2.2.15) cells after 3 days; format: functional, cell-based; settings: HepG2 2.2.15, 72 h
HepG2 = experiment: Cytotoxicity against human HepG2 cells after 3 days; format: functional, cell-based; settings: HepG2, 72 h

Row | Compound | IC50 [1] | IC50 (HepG2)
1 | CCCCCC(O)C(O)CCCCCC[C@H](O)[C@@H]1CC[C@H](CCCCCCCCCC[C@H](O)CC2=C[C@H](C)OC2=O)O1 (stereo partly drawn) [MURICIN B] | 0.00429 µg/mL (≈ 0.00719 µM) | 1.78 µg/mL (≈ 2.98 µM)
2 | CCC[C@H](O)[C@@H](O)CCCCCCCC[C@@H](O)[C@H]1CC[C@H](CCCCCCCCCC[C@@H](O)CC2=C[C@H](C)OC2=O)O1 [ANNOCATALIN] | 0.00348 µg/mL (≈ 0.00583 µM) | 5.7 µg/mL (≈ 9.55 µM)
3 | COc1cccc2c1C(=O)c1c(O)c3c(c(O)c1C2=O)C[C@@](O)(C(=O)CO)C[C@@H]3O[C@H]1C[C@H](N)[C@H](O)[C@H](C)O1 [DOXORUBICIN] | 0.45 µg/mL (≈ 0.828 µM) | 0.241 µg/mL (≈ 0.443 µM)
4 | CCCCCCCCCCCC[C@@H](O)[C@H]1CC[C@@H]([C@@H](O)CCCCC(=O)CCCCCCCC2=C[C@H](C)OC2=O)O1 [COROSSOLONE] | 0.0476 µg/mL (≈ 0.0822 µM) | 0.165 µg/mL (≈ 0.285 µM)
5 | CCCCC/C=C\CC[C@H](O)[C@@H](O)CCCC[C@@H](O)[C@H]1CC[C@H](CCCCCCCCCCCCC2=C[C@H](C)OC2=O)O1 [MURICIN I] | 0.222 µg/mL (≈ 0.366 µM) | 0.0509 µg/mL (≈ 0.0839 µM)
6 | CCCCCCC[C@H](O)[C@@H](O)CCCC[C@@H](O)[C@H]1CC[C@H](CCCCCCCCCCCCC2=C[C@H](C)OC2=O)O1 [MURICIN H] | 0.0118 µg/mL (≈ 0.0203 µM) | 0.0951 µg/mL (≈ 0.164 µM)
7 | CCCCCCCC(O)C(O)CC[C@H](O)[C@@H]1CC[C@H](CCCCCCCCCCCC[C@@H](O)CC2=C[C@H](C)OC2=O)O1 (stereo partly drawn) [MURICIN C] | 0.00387 µg/mL (≈ 0.00648 µM) | 0.499 µg/mL (≈ 0.836 µM)
8 | CCCCCCCCCCCC[C@@H](O)[C@H]1CC[C@@H]([C@@H](O)CCCCCCC(O)CCCCC[C@@H](O)CC2=C[C@H](C)OC2=O)O1 (stereo partly drawn) | 0.0162 µg/mL (≈ 0.0259 µM) | 0.298 µg/mL (≈ 0.477 µM)
9 | CCCCCC(O)C(O)CCCCCC[C@@H](O)[C@H]1CC[C@H](CCCCCCCCCC[C@@H](O)CC2=C[C@H](C)OC2=O)O1 (stereo partly drawn) [MURICIN A] | 0.00513 µg/mL (≈ 0.00859 µM) | 5.04 µg/mL (≈ 8.44 µM)

From ChEMBL document CHEMBL1148113, “New cytotoxic monotetrahydrofuran annonaceous acetogenins from Annona muricata” (J Nat Prod, 2002)
